The values that follow come from ChEMBL document CHEMBL1145334, “Structural determinants of Torpedo californica acetylcholinesterase inhibition by the novel and orally active carbamate based anti-alzheimer drug ganstigmine (CHF-2819)” (J Med Chem, 2006).

One may read the IC50 as the midpoint of a concentration-inhibition curve. The term inhibition denotes the share of the control response that was lost under treatment. Lower therefore signals a response near the control.

The structures appear in SMILES notation. Where a name gives a salt, the structure may show the parent alone.

For the first assay, the target named is Acetylcholinesterase (Torpedo californica, UniProt P04058). Briefly: Inhibition of Torpedo californica AChE. Also noted: species or system Tetronarce californica.
Chain of Acetylcholinesterase (P04058 whole entry): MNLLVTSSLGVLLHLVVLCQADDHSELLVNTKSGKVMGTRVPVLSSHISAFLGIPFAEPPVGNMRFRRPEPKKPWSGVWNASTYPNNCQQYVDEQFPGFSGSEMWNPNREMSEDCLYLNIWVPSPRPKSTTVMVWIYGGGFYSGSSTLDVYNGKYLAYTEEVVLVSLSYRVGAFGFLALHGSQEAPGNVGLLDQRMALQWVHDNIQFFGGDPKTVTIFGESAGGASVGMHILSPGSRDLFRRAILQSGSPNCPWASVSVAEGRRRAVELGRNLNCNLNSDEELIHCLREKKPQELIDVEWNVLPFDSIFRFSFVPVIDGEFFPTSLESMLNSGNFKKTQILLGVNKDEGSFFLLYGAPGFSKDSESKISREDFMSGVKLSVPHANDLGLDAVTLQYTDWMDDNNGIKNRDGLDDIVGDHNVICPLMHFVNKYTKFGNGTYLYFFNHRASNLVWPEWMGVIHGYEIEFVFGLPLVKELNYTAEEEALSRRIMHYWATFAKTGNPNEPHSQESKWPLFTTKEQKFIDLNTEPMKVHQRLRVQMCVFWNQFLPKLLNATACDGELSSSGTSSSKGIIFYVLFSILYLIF
Settings: not given
`CN1c2ccc(OC(=O)Nc3ccccc3)cc2[C@]2(C)CC[N+](C)([O-])[C@H]12` (stereo partly drawn) yielded an IC50 of 4.74 µM.
Same read-out and setting: then `CCCc1ccccc1NC(=O)Oc1ccc2c(c1)[C@]1(C)CC[N+](C)([O-])[C@@H]1N2C` (stereo partly drawn), with 8.44 µM; and `CC(C)c1ccccc1NC(=O)Oc1ccc2c(c1)[C@]1(C)CC[N+](C)([O-])[C@@H]1N2C` (stereo partly drawn), with 8.38 µM.
Same read-out and setting: the figure for `Cc1ccccc1NC(=O)Oc1ccc2c(c1)[C@]1(C)CC[N+](C)([O-])[C@@H]1N2C` (stereo partly drawn) is 4.04 µM; for `CCc1ccccc1NC(=O)Oc1ccc2c(c1)[C@]1(C)CC[N+](C)([O-])[C@@H]1N2C` (stereo partly drawn) it is 5.12 µM; for `CCc1cccc(NC(=O)Oc2ccc3c(c2)[C@]2(C)CC[N+](C)([O-])[C@@H]2N3C)c1` (stereo partly drawn) it is 9.8 µM.
The same measure, in the same setting: the figure for `Cc1cccc(NC(=O)Oc2ccc3c(c2)[C@]2(C)CC[N+](C)([O-])[C@@H]2N3C)c1` (stereo partly drawn) is 5.13 µM.
Compound `Cc1cccc(C)c1NC(=O)Oc1ccc2c(c1)[C@]1(C)CC[N+](C)([O-])[C@@H]1N2C` (stereo partly drawn) came in with an IC50 of 186 µM.
On the same count and under the same terms, the figure for `Cc1cc(C)cc(NC(=O)Oc2ccc3c(c2)[C@]2(C)CC[N+](C)([O-])[C@@H]2N3C)c1` (stereo partly drawn) is 8.58 µM; for `CNC(=O)Oc1ccc2c(c1)[C@]1(C)CC[N+](C)([O-])[C@@H]1N2C` (stereo partly drawn) [GENESERINE] it is 1.74 µM; for `Cc1ccc(NC(=O)Oc2ccc3c(c2)[C@]2(C)CC[N+](C)([O-])[C@@H]2N3C)cc1` (stereo partly drawn) it is 7.61 µM.
For the compound `CCN(C)C(=O)Oc1cccc([C@H](C)N(C)C)c1` [RIVASTIGMINE TARTRATE], half-maximal inhibition (IC50) required 187 µM.

The next assay deals with T1, Acetylcholinesterase (Mus musculus) (UniProt P21836).
T1 sequence (whole entry): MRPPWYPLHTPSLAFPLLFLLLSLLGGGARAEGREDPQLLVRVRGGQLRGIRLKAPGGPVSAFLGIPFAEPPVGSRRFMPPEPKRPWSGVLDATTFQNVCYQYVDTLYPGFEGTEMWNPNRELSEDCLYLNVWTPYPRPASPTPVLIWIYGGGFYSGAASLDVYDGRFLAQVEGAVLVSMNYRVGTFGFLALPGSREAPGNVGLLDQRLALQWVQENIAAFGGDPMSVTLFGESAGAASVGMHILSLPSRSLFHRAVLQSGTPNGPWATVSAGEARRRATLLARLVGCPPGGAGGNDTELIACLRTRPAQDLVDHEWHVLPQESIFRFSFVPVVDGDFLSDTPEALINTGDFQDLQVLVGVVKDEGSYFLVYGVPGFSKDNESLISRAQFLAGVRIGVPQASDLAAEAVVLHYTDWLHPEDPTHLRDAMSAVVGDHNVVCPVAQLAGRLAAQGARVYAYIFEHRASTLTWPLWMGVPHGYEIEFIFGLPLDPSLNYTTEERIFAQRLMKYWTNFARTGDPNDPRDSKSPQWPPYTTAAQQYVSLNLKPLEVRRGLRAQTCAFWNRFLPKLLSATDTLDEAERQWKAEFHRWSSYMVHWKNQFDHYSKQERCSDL
The settings on record: CD1, Brain, 1.5 mg/kg.
Description: Inhibition of AChE in CD1 mouse brain at 1.5 mg/kg, po after 4 hrs
`CCN(C)C(=O)Oc1cccc([C@H](C)N(C)C)c1` [RIVASTIGMINE TARTRATE] showed an inhibition of 73%.
